Measurements reported in PubChem BioAssay (NCI).
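Values below derive from 48-hour exposures of cells grown in 96-well plates, with endpoints linearly interpolated between the two concentrations bracketing the appropriate inhibition level. Here, GI50 denotes the concentration required for 50% inhibition of growth. At the TGI there is no net growth.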

Legend:
Test in all cases: NCI tumour cell line growth inhibition, 48 h
786-0 renal = tested on: 786-0 renal
A498 renal = tested on: A498 renal
A549 NSCLC = tested on: A549 NSCLC
ACHN renal = tested on: ACHN renal
BT-549 breast = tested on: BT-549 breast
CAKI-1 renal = tested on: CAKI-1 renal
CCRF-CEM leukemia = tested on: CCRF-CEM leukemia
COLO 205 colon = tested on: COLO 205 colon
DU-145 prostate = tested on: DU-145 prostate
EKVX NSCLC = tested on: EKVX NSCLC
HCC-2998 colon = tested on: HCC-2998 colon
HCT-116 colon = tested on: HCT-116 colon
HCT-15 colon = tested on: HCT-15 colon
HOP-62 NSCLC = tested on: HOP-62 NSCLC
HOP-92 NSCLC = tested on: HOP-92 NSCLC
HS 578T breast = tested on: HS 578T breast
HT29 colon = tested on: HT29 colon
IGROV1 ovarian = tested on: IGROV1 ovarian
K-562 leukemia = tested on: K-562 leukemia
KM12 colon = tested on: KM12 colon
LOX IMVI melanoma = tested on: LOX IMVI melanoma
M14 melanoma = tested on: M14 melanoma
MALME-3M melanoma = tested on: MALME-3M melanoma
MCF7 breast = tested on: MCF7 breast
MDA-MB-231 breast = tested on: MDA-MB-231 breast
MDA-MB-435 = tested on: MDA-MB-435
MOLT-4 leukemia = tested on: MOLT-4 leukemia
NCI-H226 lung = tested on: NCI-H226 lung
NCI-H23 lung = tested on: NCI-H23 lung
NCI-H460 lung = tested on: NCI-H460 lung
NCI-H522 lung = tested on: NCI-H522 lung
NCI/ADR-RES ovarian = tested on: NCI/ADR-RES ovarian
OVCAR-3 ovarian = tested on: OVCAR-3 ovarian
OVCAR-4 ovarian = tested on: OVCAR-4 ovarian
OVCAR-5 ovarian = tested on: OVCAR-5 ovarian
OVCAR-8 ovarian = tested on: OVCAR-8 ovarian
PC-3 prostate = tested on: PC-3 prostate
RPMI-8226 leukemia = tested on: RPMI-8226 leukemia
RXF 393 renal = tested on: RXF 393 renal
SF-268 CNS = tested on: SF-268 CNS
SF-295 CNS = tested on: SF-295 CNS
SF-539 CNS = tested on: SF-539 CNS
SK-MEL-2 melanoma = tested on: SK-MEL-2 melanoma
SK-MEL-28 melanoma = tested on: SK-MEL-28 melanoma
SK-MEL-5 melanoma = tested on: SK-MEL-5 melanoma
SK-OV-3 ovarian = tested on: SK-OV-3 ovarian
SN12C renal = tested on: SN12C renal
SNB-19 CNS = tested on: SNB-19 CNS
SR leukemia = tested on: SR leukemia
SW-620 colon = tested on: SW-620 colon
T-47D breast = tested on: T-47D breast
TK-10 renal = tested on: TK-10 renal
U251 CNS = tested on: U251 CNS
UACC-257 melanoma = tested on: UACC-257 melanoma
UACC-62 melanoma = tested on: UACC-62 melanoma
UO-31 renal = tested on: UO-31 renal

## O=C1c2cc(Br)ccc2-c2c1c1ccc([N+](=O)[O-])cc1c(=O)n2CCCCl
786-0 renal
  GI50: 659 nM
  TGI: 2260 nM
A498 renal
  GI50: 2200 nM
  TGI: 19400 nM
A549 NSCLC
  GI50: 114 nM
  TGI: > 33900 nM
ACHN renal
  GI50: < 15.1 nM
  TGI: 6790 nM
BT-549 breast
  GI50: 2980 nM
  TGI: > 63800 nM
CAKI-1 renal
  GI50: < 28.5 nM
  TGI: 2730 nM
CCRF-CEM leukemia
  GI50: < 10 nM
  TGI: 245 nM
COLO 205 colon
  GI50: 1390 nM
  TGI: > 100000 nM
DU-145 prostate
  GI50: 84.9 nM
  TGI: 20100 nM
EKVX NSCLC
  GI50: 10600 nM
  TGI: > 100000 nM
HCC-2998 colon
  GI50: 1550 nM
  TGI: 13000 nM
HCT-116 colon
  GI50: 1050 nM
  TGI: 5940 nM
HCT-15 colon
  GI50: 1410 nM
  TGI: > 100000 nM
HOP-62 NSCLC
  GI50: 837 nM
  TGI: 8280 nM
HOP-92 NSCLC
  GI50: 453 nM
  TGI: 23900 nM
HS 578T breast
  GI50: 19500 nM
  TGI: > 72500 nM
HT29 colon
  GI50: 309 nM
  TGI: 12100 nM
IGROV1 ovarian
  GI50: 130 nM
  TGI: 4580 nM
K-562 leukemia
  GI50: < 49.5 nM
  TGI: > 43700 nM
KM12 colon
  GI50: 500 nM
  TGI: > 41600 nM
LOX IMVI melanoma
  GI50: < 24.8 nM
  TGI: 5120 nM
M14 melanoma
  GI50: 534 nM
  TGI: 1780 nM
MALME-3M melanoma
  GI50: 250 nM
  TGI: 7740 nM
MCF7 breast
  GI50: < 10 nM
  TGI: > 44000 nM
MDA-MB-231 breast
  GI50: 12900 nM
  TGI: > 96100 nM
MDA-MB-435
  GI50: 489 nM
  TGI: 6120 nM
MOLT-4 leukemia
  GI50: < 10 nM
NCI-H226 lung
  GI50: 100 nM
  TGI: 3590 nM
NCI-H23 lung
  GI50: 1540 nM
  TGI: 8040 nM
NCI-H460 lung
  GI50: < 10 nM
  TGI: 5400 nM
NCI-H522 lung
  GI50: 63.6 nM
  TGI: 5380 nM
NCI/ADR-RES ovarian
  GI50: 239 nM
  TGI: 7900 nM
OVCAR-3 ovarian
  GI50: 1110 nM
  TGI: 14500 nM
OVCAR-4 ovarian
  GI50: 11200 nM
  TGI: 77700 nM
OVCAR-5 ovarian
  GI50: 2570 nM
  TGI: 21800 nM
OVCAR-8 ovarian
  GI50: 293 nM
  TGI: 17400 nM
PC-3 prostate
  GI50: 184 nM
  TGI: > 100000 nM
RPMI-8226 leukemia
  GI50: < 28.9 nM
  TGI: 647 nM
RXF 393 renal
  GI50: 487 nM
  TGI: 14200 nM
SF-268 CNS
  GI50: < 25.8 nM
  TGI: 35500 nM
SF-295 CNS
  GI50: < 47.9 nM
  TGI: 3560 nM
SF-539 CNS
  GI50: 182 nM
  TGI: 3310 nM
SK-MEL-2 melanoma
  GI50: 10800 nM
  TGI: 37300 nM
SK-MEL-28 melanoma
  GI50: 1610 nM
  TGI: > 100000 nM
SK-MEL-5 melanoma
  GI50: 240 nM
  TGI: 1020 nM
SK-OV-3 ovarian
  GI50: 160 nM
  TGI: 16000 nM
SN12C renal
  GI50: 34.7 nM
  TGI: 2200 nM
SNB-19 CNS
  GI50: < 10 nM
  TGI: 7190 nM
SR leukemia
  GI50: < 10 nM
SW-620 colon
  GI50: 53.3 nM
  TGI: > 100000 nM
T-47D breast
  GI50: 14.4 nM
  TGI: 18800 nM
TK-10 renal
  GI50: 13800 nM
  TGI: > 57200 nM
U251 CNS
  GI50: < 21.9 nM
  TGI: 15600 nM
UACC-257 melanoma
  GI50: 287 nM
  TGI: 2850 nM
UACC-62 melanoma
  GI50: 26.4 nM
  TGI: 1080 nM
UO-31 renal
  GI50: 57.7 nM
  TGI: 3430 nM
